The record followed here is ChEMBL document CHEMBL1201862, “PubChem BioAssay data set” (2004).

SMILES strings stand for the structures.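 These data come from cells grown in 96-well plates and exposed to compound for 48 hours at five concentrations. The concentration for 50% growth inhibition is given as GI50.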 The source made the active and inactive calls. Cut-off read from the data, not from the text of the source: active = GI50 up to about 1.1 µM and inactive = higher.

Test systems include OVCAR-5; DU-145; HT-29; NCI/ADR-RES; UO-31; ACHN; OVCAR-8; K562; SNB-19; A498; MDA-MB-231; EKVX; OVCAR-3; SK-MEL-28; RPMI-8226; SF-295; HOP-62; Hs-578T; COLO 205; PC-3.
What all share (assay): NCI tumour cell line growth inhibition, 48 h

On to `Cc1ccsc1/C=N/Nc1cnccn1`, for which the GI50 in the test with OVCAR-5 was 94 µM (inactive); with DU-145, > 100 µM (inactive); with HT-29, 76.9 µM (inactive); with NCI/ADR-RES it was > 100 µM (inactive); in the test with UO-31, > 100 µM (inactive); with ACHN it was > 100 µM (inactive). The GI50 in the test on OVCAR-8 is 27.4 µM (inactive); in the test with K562, > 100 µM (inactive); in the test with SNB-19, > 100 µM (inactive); in the test with A498 it was 62.4 µM (inactive); in the test with MDA-MB-231, > 100 µM (inactive); with EKVX, 63.5 µM (inactive). For the same molecule, the GI50 with OVCAR-3, in the test on SK-MEL-28, with RPMI-8226, in the test on SF-295, with HOP-62 and with Hs-578T was > 100 µM (inactive) throughout. Also, the GI50 in the test with COLO 205 and in the test on PC-3 was > 100 µM (inactive) in each case.
Consider `CCOc1cccc(/C=N\c2ccccc2SSc2ccccc2/N=C\c2cccc(OCC)c2O)c1O`, for which the GI50 with OVCAR-5 is 4.56 µM (inactive); with DU-145 it was 16.6 µM (inactive); with HT-29, 14.6 µM (inactive); in the test on NCI/ADR-RES it was 3.55 µM (inactive); with UO-31, 13.7 µM (inactive); in the test on ACHN it was 13.5 µM (inactive). Also, the GI50 was 2.52 µM (inactive) in the test on OVCAR-8; 6.55 µM (inactive) with K562; 11.2 µM (inactive) with SNB-19; 24.2 µM (inactive) with A498; 8.95 µM (inactive) with MDA-MB-231; 3.86 µM (inactive) with EKVX. For the same molecule, the GI50 with OVCAR-3 is 2.62 µM (inactive); in the test with SK-MEL-28, 12.4 µM (inactive); in the test on RPMI-8226, 3.73 µM (inactive); in the test with SF-295, 12.6 µM (inactive); with HOP-62 it was 6.92 µM (inactive); in the test on Hs-578T, 16.9 µM (inactive). The GI50 with COLO 205 is 3.02 µM (inactive); with PC-3, 3.17 µM (inactive).
For the molecule `O=C(O)CSCC(=O)c1ccccc1`, the GI50 with OVCAR-5, with DU-145, in the test with HT-29, in the test on NCI/ADR-RES, with UO-31 and with ACHN was > 100 µM (inactive) in each case. Also, the GI50 in the test with OVCAR-8, in the test with K562, in the test with SNB-19, in the test with A498, in the test on MDA-MB-231 and in the test on EKVX was > 100 µM (inactive) each time. For the same molecule, the GI50 in the test on OVCAR-3, in the test on SK-MEL-28, in the test with RPMI-8226, in the test with SF-295, in the test with HOP-62 and in the test on Hs-578T was > 100 µM (inactive) each time. In addition, the GI50 with COLO 205 and with PC-3 was > 100 µM (inactive) in each case.
Turning to `NC(=O)c1csc(C2(O)COC(CO)C2O)n1` (configuration not stated), the GI50 in the test with OVCAR-5, with DU-145, in the test on HT-29, in the test on NCI/ADR-RES, in the test on UO-31 and in the test with ACHN was > 100 µM (inactive) throughout. The GI50 with OVCAR-8, with SNB-19, in the test with A498, with MDA-MB-231, in the test with EKVX and with OVCAR-3 was > 100 µM (inactive) each time. Also, the GI50 in the test on SK-MEL-28, in the test with RPMI-8226, in the test with SF-295, in the test with HOP-62, in the test on Hs-578T and in the test on COLO 205 was > 100 µM (inactive) each time. Also, the GI50 with PC-3 is > 100 µM (inactive).
For the molecule `CC1=C(C(=S)Nc2ccc(Cl)c(C(=O)OC(C)C)c2)SCCO1`, the GI50 with OVCAR-5 was 34.6 µM (inactive); with DU-145, 20.3 µM (inactive); in the test on HT-29 it was 18.6 µM (inactive); in the test with NCI/ADR-RES, 18.8 µM (inactive); in the test with UO-31, 14.9 µM (inactive); in the test on ACHN, 25.8 µM (inactive). Moreover, the GI50 in the test on OVCAR-8 is 20 µM (inactive); with K562 it was 17.1 µM (inactive); in the test with SNB-19, 16.7 µM (inactive); in the test with A498, 16.1 µM (inactive); with MDA-MB-231 it was 18.2 µM (inactive); in the test on EKVX it was 19.1 µM (inactive). In addition, the GI50 in the test with OVCAR-3 is 22.8 µM (inactive); in the test on SK-MEL-28, 17.9 µM (inactive); with RPMI-8226, 21.9 µM (inactive); with SF-295, 15.7 µM (inactive); in the test with Hs-578T, 29.3 µM (inactive); with COLO 205, 20 µM (inactive). Further, the GI50 in the test on PC-3 was 16.9 µM (inactive).
Regarding `CC(=O)N1c2ccccc2C(C)(C)OC1C(Cl)(Cl)Cl` (configuration not stated), the GI50 in the test with OVCAR-5 was 44.8 µM (inactive); with DU-145, 42.1 µM (inactive); in the test with HT-29 it was 24.2 µM (inactive); with NCI/ADR-RES it was 31.7 µM (inactive); in the test on UO-31, 58.2 µM (inactive); with ACHN, 41.1 µM (inactive). The GI50 in the test on OVCAR-8 was 39.5 µM (inactive); with SNB-19, 44.7 µM (inactive); in the test with A498 it was 37 µM (inactive); in the test on MDA-MB-231, 39.6 µM (inactive); in the test with EKVX, 26.2 µM (inactive); in the test with OVCAR-3 it was 33.1 µM (inactive). Besides, the GI50 with SK-MEL-28 was 47.6 µM (inactive); in the test with RPMI-8226, 14.1 µM (inactive); in the test on SF-295, 37.6 µM (inactive); in the test with HOP-62, 55.8 µM (inactive); with Hs-578T, 22.6 µM (inactive); with COLO 205, 30.3 µM (inactive). In the test on PC-3, the GI50 was 31.8 µM (inactive).
`Clc1ccccc1-c1nc2cc(C34CC5CC(CC(C5)C3)C4)ccc2[nH]1`: the GI50 in the test with OVCAR-5 is 17.8 µM (inactive); in the test on DU-145 it was 23.2 µM (inactive); in the test on HT-29, 11.4 µM (inactive); in the test with NCI/ADR-RES it was 28.1 µM (inactive); in the test on UO-31, 14.7 µM (inactive); in the test with ACHN it was 11.6 µM (inactive). In addition, the GI50 with OVCAR-8 was 10.9 µM (inactive); with K562 it was 27.5 µM (inactive); with SNB-19, 10 µM (inactive); in the test on A498, 25 µM (inactive); with MDA-MB-231 it was 15 µM (inactive); with EKVX, 29.1 µM (inactive). Besides, the GI50 was 20.6 µM (inactive) in the test with SK-MEL-28; 34.2 µM (inactive) in the test with RPMI-8226; 13.6 µM (inactive) with SF-295; 14.3 µM (inactive) in the test on HOP-62; 28.8 µM (inactive) with Hs-578T; 34 µM (inactive) in the test with COLO 205. Also, the GI50 in the test on PC-3 was 15.1 µM (inactive).
With `Nc1nccc(NCC2(CO)CC(CCc3ccccc3)C2)n1` (configuration not stated), the GI50 was 14 µM (inactive) in the test with OVCAR-5; 12.4 µM (inactive) in the test on DU-145; 11 µM (inactive) in the test on HT-29; 14.2 µM (inactive) with NCI/ADR-RES; 12.5 µM (inactive) in the test on UO-31; 13.9 µM (inactive) in the test with ACHN. The GI50 in the test with OVCAR-8 was 18.2 µM (inactive); in the test with K562, 4.74 µM (inactive); in the test with A498, 13.2 µM (inactive); in the test with MDA-MB-231, 16.6 µM (inactive); with EKVX, 12.6 µM (inactive); with OVCAR-3 it was 12.3 µM (inactive). The GI50 in the test on SK-MEL-28 is 16.8 µM (inactive); with RPMI-8226, 10.8 µM (inactive); in the test on SF-295 it was 10.8 µM (inactive); in the test on HOP-62 it was 18.2 µM (inactive); in the test with Hs-578T it was 19.8 µM (inactive); in the test on COLO 205, 13.2 µM (inactive). Moreover, in the test with PC-3, the GI50 is 15.1 µM (inactive).
In the case of `CN1CCN(C2=CC(=O)c3c(O)ccc(O)c3C2=O)CC1`, the GI50 is 1.75 µM (inactive) in the test on DU-145; 0.302 µM (active) with HT-29; 1.04 µM (active) with NCI/ADR-RES; 1.55 µM (inactive) in the test on UO-31; 1.54 µM (inactive) in the test with ACHN; 0.347 µM (active) in the test on K562. The GI50 is 1.69 µM (inactive) with SNB-19; 1.54 µM (inactive) in the test with A498; 1.46 µM (inactive) with MDA-MB-231; 1.86 µM (inactive) with EKVX; 0.23 µM (active) with OVCAR-3; 1.64 µM (inactive) in the test with SK-MEL-28. For the same molecule, the GI50 in the test on RPMI-8226 was 1.37 µM (inactive); with SF-295, 1.69 µM (inactive); in the test on HOP-62 it was 1 µM (active); with Hs-578T, 2.03 µM (inactive); with COLO 205 it was 0.166 µM (active); in the test on PC-3 it was 0.412 µM (active).
On to `ClCCN(CCCl)c1ccc(CNCCCNCc2ccc(N(CCCl)CCCl)cc2)cc1`, for which the GI50 with OVCAR-5 was 3.97 µM (inactive); with DU-145, 2.37 µM (inactive); in the test with HT-29, 1.87 µM (inactive); in the test on NCI/ADR-RES, 6.15 µM (inactive); in the test on UO-31, 2.06 µM (inactive); in the test on ACHN it was 0.521 µM (active). For the same molecule, the GI50 was 2.38 µM (inactive) in the test on OVCAR-8; 1.93 µM (inactive) in the test on K562; 1.87 µM (inactive) in the test with SNB-19; 7.24 µM (inactive) in the test with A498; 2.7 µM (inactive) in the test with MDA-MB-231; 2.69 µM (inactive) in the test with EKVX. The GI50 is 2.69 µM (inactive) with OVCAR-3; 1.69 µM (inactive) with SK-MEL-28; 3.52 µM (inactive) with RPMI-8226; 2.54 µM (inactive) in the test on HOP-62; 3.13 µM (inactive) with Hs-578T; 1.62 µM (inactive) in the test on COLO 205. In addition, the GI50 in the test with PC-3 is 5.92 µM (inactive).
